Here are results for five molecules from patent US10227324B2 (Shanghai Haiyan Pharmaceutical Technology Co., Ltd., priority 2014, dated 2019).

Experiment [1] has as its system Akt phosphorylation (Ser473-p-Akt) in PC-3 cells. As to the kind of experiment: Inhibition of p-Akt phosphorylation level in PC-3 cells (cell level fluorescence imaging). Type of experiment: cell-based. Particulars: Homo sapiens; Akt phosphorylation in PC-3 cells, 2 hours incubation; read-out: PC-3 cell (IC50/nM). The method in brief:
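Inhibition was computed from p-Akt(Ser473) immunofluorescence scaled to DMSO-treated wells (full signal) and 10 μM BEZ235 wells (background). Cells were treated for 2 h with an 8-point, 3-fold series from 0.0046 to 10 μM in duplicate before fixation, antibody staining with PI counterstain, and plate imaging.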

In experiment [2] the test system is T47D cells. As to the kind of experiment: Cell inhibitory activity detected by MTT assay, T47D. Type of experiment: cell-based. Particulars: Homo sapiens, T47D, 72 h, read-out: T47D cell (IC50/nM), cell growth inhibition. On the technique in general: Tetrazolium assays rely on reduction of a dye to a coloured formazan, in cell work by metabolically active cells.

Experiment [3] deals with T1, PI3K-γ kinase (p110γ) (Homo sapiens, UniProt P48736).
T1 construct: purchased Invitrogen PV4786
T1 sequence (P48736 whole entry): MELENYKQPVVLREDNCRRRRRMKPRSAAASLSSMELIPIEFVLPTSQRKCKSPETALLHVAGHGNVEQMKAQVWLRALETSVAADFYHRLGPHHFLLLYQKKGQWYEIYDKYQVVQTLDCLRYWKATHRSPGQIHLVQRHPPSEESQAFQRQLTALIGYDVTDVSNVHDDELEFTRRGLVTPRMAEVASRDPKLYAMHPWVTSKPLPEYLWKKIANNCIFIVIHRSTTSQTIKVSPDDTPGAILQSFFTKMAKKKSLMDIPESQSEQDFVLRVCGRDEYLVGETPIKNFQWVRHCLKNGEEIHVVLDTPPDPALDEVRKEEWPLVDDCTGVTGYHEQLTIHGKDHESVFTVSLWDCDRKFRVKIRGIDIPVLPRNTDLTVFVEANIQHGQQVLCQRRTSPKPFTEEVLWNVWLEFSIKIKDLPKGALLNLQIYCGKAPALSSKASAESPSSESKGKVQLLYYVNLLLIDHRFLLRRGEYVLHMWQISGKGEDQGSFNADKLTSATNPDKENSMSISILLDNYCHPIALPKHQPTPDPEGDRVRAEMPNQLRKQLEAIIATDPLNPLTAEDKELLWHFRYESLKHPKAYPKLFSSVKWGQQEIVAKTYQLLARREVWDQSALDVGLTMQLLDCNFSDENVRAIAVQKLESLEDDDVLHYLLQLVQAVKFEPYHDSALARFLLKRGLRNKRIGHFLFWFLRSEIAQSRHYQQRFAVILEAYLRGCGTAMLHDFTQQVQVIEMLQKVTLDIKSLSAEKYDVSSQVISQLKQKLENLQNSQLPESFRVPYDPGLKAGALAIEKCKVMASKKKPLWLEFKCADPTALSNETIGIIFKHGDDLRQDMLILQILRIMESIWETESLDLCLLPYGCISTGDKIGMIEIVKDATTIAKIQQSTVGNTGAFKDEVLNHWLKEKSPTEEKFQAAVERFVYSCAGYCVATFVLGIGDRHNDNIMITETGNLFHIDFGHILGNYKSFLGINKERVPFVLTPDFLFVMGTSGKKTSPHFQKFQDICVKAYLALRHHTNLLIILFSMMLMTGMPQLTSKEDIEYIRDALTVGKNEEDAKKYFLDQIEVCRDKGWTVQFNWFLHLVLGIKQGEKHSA
As to the kind of experiment: Determination of PI3K kinase activity (ADP Transcreener, fluorescence polarization). Type of experiment: biochemical. The conditions noted are these: Table 1; ATP 10 μM; read-out: PI3K-γ/nM (IC50 of inhibitory activity against PI3K kinase). The method in brief: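 Each 25 μL reaction held PI3K enzyme (p110α/p85α 3 ng, p110β/p85α 60 ng, p110δ/p85α 90 ng, or p110γ 100 ng), 10 μM ATP, 30 μM PIP2:PS and 2% DMSO, incubated 1 h at 25 °C. Compounds were tested in duplicate across a 3-fold series, 0.00046–1 μM as prepared. ADP was detected by Transcreener fluorescence polarization, quantified against an ADP/ATP standard curve, and IC50 fitted.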

In the case of `C[C@@H]1COCCN1c1nc(-c2cnc(N)cc2Cl)cc(C2(S(C)(=O)=O)CC2)n1` [Compound S-68], the IC50 in experiment [1] was determined as 183 nM; in experiment [2] it was 73 nM; in experiment [3], 184 nM.

For `CS(=O)(=O)C1(c2cc(N3CCOCC3)nc(-c3cnc(N)cc3C(F)(F)F)n2)CC1` [reference compound], the IC50 is 1020 nM in experiment [1], 854 nM in experiment [2] and above 3000 nM in experiment [3].

Consider `Nc1cc(F)c(-c2cc(C3(S(=O)(=O)C4CC4)CC3)nc(N3CCOCC3)n2)cn1` [Compound S-88], for which the results for the IC50 in experiment [1], in experiment [2] and in experiment [3] were 349 nM, 81 nM and 98 nM, respectively.

Turning to `CC(C)(c1cc(-c2cnc(N)cc2F)nc(N2CCOCC2)n1)S(C)(=O)=O` [Compound S-81], the IC50 stood at 215 nM in experiment [1], 123 nM in experiment [2] and 181 nM in experiment [3].

Consider `CC(C)(c1cc(-c2cnc(N)nc2C(F)(F)F)nc(N2CCOCC2)n1)S(C)(=O)=O` [Compound S-45], for which the IC50 in experiment [1] is 156 nM; in experiment [2], 163 nM; in experiment [3], 78 nM.
